ChEMBL document CHEMBL1201862, “PubChem BioAssay data set” (2004)
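Interpolation was linear, between the two tested concentrations surrounding the appropriate level; five concentrations were tested over 48 hours in 96-well plates. Abbreviation: GI50, concentration required for 50% inhibition of growth.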 Active and inactive are the calls of the source. Rule as the data show it: active = GI50 up to about 1.1 µM and inactive = higher.

Experiments:
Experiment in all cases: NCI anticancer screen, dose series, 48 h
[1] = tested on: CCRF-CEM
[2] = tested on: OVCAR-3
[3] = tested on: SW-620
[4] = tested on: U-251
[5] = tested on: A498
[6] = tested on: OVCAR-4
[7] = tested on: HL-60
[8] = tested on: SNB-19
[9] = tested on: SN12C
[10] = tested on: KM12
[11] = tested on: HCT-116
[12] = tested on: LOX IMVI
[13] = tested on: Malme-3M
[14] = tested on: NCI-H460
[15] = tested on: OVCAR-5
[16] = tested on: IGROV-1
[17] = tested on: SF-295
[18] = tested on: SK-OV-3
[19] = tested on: TK-10
[20] = tested on: A549

Measured: GI50

CCN1CCC(O)(c2ccc(O)cc2)C(C(=O)c2ccc(O)cc2)C1 (stereo not given)
inactive: [1] 11.5 µM | [2] 18.2 µM | [3] 2.95 µM | [4] > 100 µM | [5] > 10 µM | [6] 27.7 µM | [7] 31.7 µM | [8] > 100 µM | [9] 22.3 µM | [10] 22.2 µM | [11] 20.3 µM | [12] 12.5 µM | [13] 20.5 µM | [14] > 100 µM | [15] 21.1 µM | [16] 21.6 µM | [17] > 100 µM | [18] > 100 µM | [19] 17.3 µM

O=C1CCCC1C(O)(C(F)(F)Cl)C(F)(F)Cl (stereo not given)
inactive: [1] > 10 µM | [2] > 10 µM | [3] > 10 µM | [4] > 10 µM | [5] > 10 µM | [6] > 10 µM | [7] > 10 µM | [8] > 10 µM | [9] > 10 µM | [10] > 10 µM | [11] > 10 µM | [12] > 10 µM | [13] > 10 µM | [14] > 10 µM | [15] > 10 µM | [20] > 10 µM | [16] > 10 µM | [17] > 10 µM | [18] > 10 µM | [19] > 10 µM

N#Cc1c(N2CCCC2)ncn(-c2ccccc2)c1=S
inactive: [1] > 100 µM | [2] > 100 µM | [3] > 100 µM | [4] > 100 µM | [5] > 100 µM | [6] > 100 µM | [7] > 100 µM | [8] > 100 µM | [9] > 100 µM | [10] > 100 µM | [11] > 100 µM | [12] > 100 µM | [13] > 100 µM | [14] > 100 µM | [15] > 100 µM | [20] > 100 µM | [16] > 100 µM | [17] > 100 µM | [18] > 100 µM | [19] > 100 µM

CN1C(=O)N(C)C2(CCN(CC(CC3OCCO3)c3ccc(F)cc3)CC2)C1=O (stereo not given)
inactive: [1] > 100 µM | [2] > 100 µM | [4] > 100 µM | [5] > 100 µM | [6] > 100 µM | [7] > 100 µM | [8] > 100 µM | [9] > 100 µM | [11] > 100 µM | [12] > 100 µM | [13] > 100 µM | [15] > 100 µM | [20] > 100 µM | [16] > 100 µM | [17] > 100 µM | [18] > 100 µM | [19] > 100 µM

O=C(Nc1nccs1)c1c(O)nc2sccn2c1=O
inactive: [1] > 10 µM | [2] > 10 µM | [3] > 10 µM | [4] > 10 µM | [5] > 10 µM | [6] > 10 µM | [7] > 10 µM | [8] > 10 µM | [9] > 10 µM | [10] > 10 µM | [11] > 10 µM | [12] > 10 µM | [13] > 10 µM | [14] > 10 µM | [15] > 10 µM | [20] > 10 µM | [16] > 10 µM | [17] > 10 µM | [18] > 10 µM | [19] > 10 µM

O=C(CCc1ccc(O)cc1)NCCc1cccc(O)c1
inactive: [1] > 50 µM | [2] > 50 µM | [4] > 50 µM | [5] > 50 µM | [6] > 50 µM | [7] > 50 µM | [8] > 50 µM | [9] > 50 µM | [10] > 50 µM | [11] > 50 µM | [12] > 50 µM | [13] > 50 µM | [14] > 50 µM | [15] > 50 µM | [20] > 50 µM | [16] > 50 µM | [17] > 50 µM | [18] > 50 µM | [19] > 50 µM

NC(CP(=O)(O)O)C(=O)O (stereo not given)
inactive: [1] > 100 µM | [2] > 100 µM | [3] > 100 µM | [4] > 100 µM | [5] > 100 µM | [6] > 100 µM | [7] > 100 µM | [8] > 100 µM | [9] > 100 µM | [10] > 100 µM | [11] > 100 µM | [12] 43.6 µM | [13] > 100 µM | [14] > 100 µM | [15] > 100 µM | [20] > 100 µM | [16] > 100 µM | [17] > 100 µM | [18] > 100 µM | [19] > 100 µM
